Results reported in PubChem BioAssay (NCI).
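Test compounds were applied to cells in 96-well plates for 48 hours at 5 doses. GI50 is the concentration that inhibits growth by half. Definition used: TGI = concentration required for complete inhibition of growth.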 *1 amine or outer side, *2 acyl side, *3 side chain or, on linkers, in order; H or OH if unused. Where a SMILES comes first, the peptide text is derived from it. Bridges are numbered along the chain shown (N, C = ends). [ ]: non-standard residue; d: D form. The star is where a group is joined. X38 = CC[C@H](C)[C@@H](N[*:1])[C@@H](O)CC(=O)[*:2]; NMeY = CN[C@@H](Cc1ccc(O)cc1)C(=O)O; dNMeL = CN[C@H](CC(C)C)C(=O)O; Hiv = CC(C)[C@H](O)C(=O)O; Pyruvoyl = CC(=O)C(=O)*

Key:
Experiment in all cases: growth of human tumour cells (NCI), 48 h
[1] = test system: HT29 colon
[2] = test system: MDA-MB-231 breast
[3] = test system: BT-549 breast
[4] = test system: RPMI-8226 leukemia
[5] = test system: NCI-H226 lung
[6] = test system: SF-539 CNS
[7] = test system: UO-31 renal
[8] = test system: NCI/ADR-RES ovarian
[9] = test system: SK-MEL-2 melanoma
[10] = test system: COLO 205 colon

Row | SMILES | TGI [1] [µM] | TGI [2] [µM] | TGI [3] [µM] | TGI [4] [µM] | TGI [5] [µM] | TGI [6] [µM] | TGI [7] [µM] | TGI [8] [µM] | TGI [9] [µM] | TGI [10] [µM] | GI50 [1] [µM] | GI50 [2] [µM] | GI50 [3] [µM] | GI50 [4] [µM] | GI50 [5] [µM] | GI50 [6] [µM] | GI50 [7] [µM] | GI50 [8] [µM] | GI50 [9] [µM] | GI50 [10] [µM]
1 | C[C@@]12C=CC3C/C(=N\C(N)=S)C=C(CCCC4OCCO4)[C@]3(CC1)C2 (some centres not stated) | 25.4 | 43.1 | 51.9 | 50.8 | 55 | 31.7 | 38.9 | 54.3 | 30.6 | 26 | – | – | – | – | – | – | – | – | – | –
2 | Cc1occc1C(=S)Nc1ccc(Cl)c(C(=O)OCC(F)(F)F)c1 | 33.7 | 35.2 | 42.7 | 51.5 | 35.9 | 18.1 | 39.1 | 40.1 | 44.9 | 67.6 | – | – | – | – | – | – | – | – | – | –
3 | COc1cc2c(/C=C3/C(=O)Nc4ccc(Cl)cc43)c(Cl)n(Cc3ccccc3)c2cc1C | > 100 | 6.04 | 22.6 | 6.9 | 9.61 | 7.69 | 6.78 | > 100 | 34.9 | 6.36 | – | – | – | – | – | – | – | – | – | –
4 | O=c1c2cc(S(=O)(=O)Nc3ccccc3Cl)ccc2ncn1NS(=O)(=O)c1ccc(Br)cc1 | > 37.5 | > 37.5 | > 37.5 | > 37.5 | > 37.5 | > 37.5 | > 37.5 | > 37.5 | > 37.5 | > 37.5 | – | – | – | – | – | – | – | – | – | –
5 | NC(=O)c1cc2ccccc2oc1=Nc1ccccc1 | > 100 | > 100 | > 100 | > 100 | > 100 | > 100 | – | > 100 | > 100 | > 100 | – | – | – | – | – | – | – | – | – | –
6 | COc1ccccc1C1CC(=O)CC(c2ccccc2OC)C12C(=O)NC(=S)NC2=O (configuration not stated) | > 100 | > 100 | > 100 | 52.7 | > 100 | > 100 | > 100 | > 100 | > 100 | > 100 | – | – | – | – | – | – | – | – | – | –
7 | CCOC(=O)NC(C(F)(F)F)(C(F)(F)F)P(=O)(OC(C)C)OC(C)C | > 100 | > 100 | > 100 | > 100 | > 100 | > 100 | > 100 | > 100 | > 100 | > 100 | – | – | – | – | – | – | – | – | – | –
8 | COc1ccc2c(c1)CC[C@@H]1[C@@H]2CC[C@]2(C)C(=O)C3(CCCCC3)C[C@@H]12 | > 100 | > 100 | > 100 | > 100 | > 100 | > 100 | > 100 | > 100 | > 100 | > 100 | 79.5 | > 100 | > 100 | > 100 | > 100 | > 100 | > 100 | > 100 | > 100 | > 100
9 | CC[C@H](C)[C@H]1NC(=O)[C@@H](NC(=O)[C@@H](CC(C)C)N(C)C(=O)[C@@H]2CCCN2C(=O)C(C)=O)[C@@H](C)OC(=O)[C@H](Cc2ccc(OC)cc2)N(C)C(=O)[C@@H]2CCCN2C(=O)[C@H](CC(C)C)NC(=O)[C@H](C(C)C)OC(=O)C[C@@H]1O (Pyruvoyl-P[dNMeL]T[X38][Hiv]LP[NMeY](Me); ester 3-C) | 0.0795 | 0.112 | 0.0181 | 0.0465 | 0.0331 | 0.0101 | 0.137 | 4.77 | 0.0255 | 0.00621 | – | – | – | – | – | – | – | – | – | –
10 | CC1=NC(=O)C(C)(c2ccccc2)N1CCc1ccccc1 (configuration not stated) | > 100 | > 100 | > 100 | > 100 | > 100 | > 100 | > 100 | > 100 | > 100 | > 100 | – | – | – | – | – | – | – | – | – | –
11 | C[C@H]1[C@H](C)N(Cc2ccccc2)P(=O)(C(O)/C=C/c2ccccc2)N1Cc1ccccc1 (some centres not stated) | 12.3 | 15.1 | > 25 | 15.6 | 16.9 | 10.2 | 10.7 | > 25 | 9.66 | 17.4 | – | – | – | – | – | – | – | – | – | –
12 | COc1ccc(Br)c2c1CC(C(=O)O)CC2 (configuration not stated) | > 100 | > 100 | > 100 | > 100 | > 100 | > 100 | > 100 | > 100 | > 100 | > 100 | – | – | – | – | – | – | – | – | – | –
13 | CSc1nc2ccccc2c(=O)n1/N=C1\C(=O)N(CN2CCCCC2)c2ccc(Cl)cc21 | > 100 | > 100 | 80.7 | – | > 100 | > 100 | > 100 | > 100 | 54.6 | 36 | – | – | – | – | – | – | – | – | – | –
14 | N#CC1(C#N)C2CCCCC23OC(=N)C1(C#N)C(c1ccco1)O3 (configuration not stated) | > 100 | 33 | 30.3 | – | > 100 | 51.6 | > 100 | > 100 | 45.3 | 31.6 | – | – | – | – | – | – | – | – | – | –
15 | CCCCCC(=O)Nc1n[nH]nc1C(N)=O | > 100 | > 100 | > 100 | > 100 | > 100 | > 100 | > 100 | > 100 | > 100 | > 100 | – | – | – | – | – | – | – | – | – | –
16 | COc1ccc(/C=C(\Cl)c2ccc(OC)c(OC)c2)cc1OC | > 100 | > 100 | > 100 | > 100 | > 100 | > 100 | > 100 | > 100 | > 100 | > 100 | – | – | – | – | – | – | – | – | – | –
17 | c1csc(-c2cscc2-c2ccsc2)c1 | > 100 | > 100 | > 100 | > 100 | > 78.9 | > 93.5 | > 100 | > 100 | > 100 | > 100 | – | – | – | – | – | – | – | – | – | –
18 | O=C1NC(N2CCOCC2)=N/C1=C\c1cccs1 | > 100 | > 100 | > 100 | > 100 | > 100 | > 100 | > 100 | > 100 | > 100 | > 100 | – | – | – | – | – | – | – | – | – | –
19 | CCCCc1ccc(Nc2nc(Cl)c3c(ncn3COCCOC(C)=O)n2)cc1 | 34.9 | 33.4 | 31.4 | > 100 | 40.6 | 53.4 | 33.7 | 41.2 | 39.2 | 45.5 | – | – | – | – | – | – | – | – | – | –
